The text below walks through data of US20040147561A1, “Pyrid-2-one derivatives and methods of use” (priority 2002, published 2004).

Assay in the first data set: not given
Conditions: not given
With `CCOC(=O)c1cc(-c2csc(CS(=O)(=O)c3cccs3)n2)c(=O)[nH]c1C` [Example 24, Ethyl 2-methyl-6-oxo-5-{2-[(2-thienylsulfonyl)methyl](1,3-thiazol-4-yl)}-1,6-dihydro-3-pyridinecarboxylate], the melting point was 300 °C (dec.).
Same read-out and setting: then `CCOC(=O)c1cc(-c2csc(-c3ccnc(NCc4cccnc4)c3)n2)c(=O)[nH]c1C` [Example 47, Ethyl 2-methyl-6-oxo-5-(2-(2-((3-pyridinylmethyl)amino)-4-pyridinyl)-1,3-thiazol-4-yl)-1,6-dihydro-3-pyridin carboxylate], with 280 °C (dec.); and `CCOC(=O)c1cc(-c2csc(-c3ccnc(NCCNC(C)C)c3)n2)c(=O)[nH]c1C` [Example 50, Ethyl 2-methyl-5-(2-(2-((2-((1-methylethyl)amino)ethyl)amino)-4-pyridinyl)-1,3-thiazol-4-yl)-6-oxo-1,6-dihydro-3-pyridinecarboxylate], with 260 °C (dec.); and `CCOC(=O)c1cc(-c2csc(CCn3cccc(C(F)(F)F)c3=O)n2)c(=O)[nH]c1C` [Example 51, Ethyl 2-methyl-6-oxo-5-(2-(2-(2-oxo-3-(trifluoromethyl)-1(2H)-pyridinyl)ethyl)-1,3-thiazol-4-yl)-1,6-dihydro-3-pyridinecarboxylate], with 250 °C (dec.).
Same read-out and setting: as for `CCOC(=O)c1cc(-c2csc(-c3ccnc(NCCN(CC)CC)c3)n2)c(=O)[nH]c1C` [Example 52, Ethyl 5-(2-(2-((2-(diethylamino)ethyl)amino)-4-pyridinyl)-1,3-thiazol-4-yl)-2-methyl-6-oxo-1,6-dihydro-3-pyridinecarboxylate], the figure is 250 °C (dec.).
As for `CC(=O)NCCNc1cc(-c2nc(-c3ccc(C)[nH]c3=O)cs2)ccn1` [Example 59, N-(2-{4-[4-(6-Methyl-2-oxo-1,6-dihydropyridin-3-yl)-thiazol-2-yl]-pyridin-2-ylamino}-ethyl)-acetamide], the melting point is 230 °C (dec.).
Still for that read-out and setting: then `CCOC(=O)c1cc(-c2csc(-c3ccnc(NCc4ccc(OC)cc4)c3)n2)c(=O)[nH]c1C` [Example 64, Ehtyl 5-{2-[2-(4-Methoxy-benzyamino)-pyridin-4-yl]-thiazol-4-yl}-2-methyl-6-oxo-1,6-dihydro-3-pyridinecarboxylate], with more than 260 °C.
On the same count and under the same terms, as for `CCOC(=O)c1cc(-c2csc(-c3ccnc(N)c3)n2)c(=O)[nH]c1C` [Example 65, Ethyl 2-methyl-6-oxo-5-(2-(2-(amino)-4-pyridinyl)-1,3-thiazol-4-yl)-1,6-dihydro-3-pyridinecarboxylate], the figure is more than 260 °C; as for `CCNCCNC(=O)c1cc(-c2csc(-c3ccnc(NCCNCC)c3)n2)c(=O)[nH]c1C` [Example 66], more than 260 °C.
With `COCc1ccc(-c2csc(-c3ccncc3)n2)c(=O)[nH]1` [Example 70, 6-(Methoxymethyl)-3-(2-(4-pyridinyl)-1,3-thiazol-4-yl)-2(1H)-pyridinone], the melting point lay within 249 to 254 °C.
As to `CCOC(=O)c1cc(-c2csc(-c3ccnc(NC)c3)n2)c(=O)[nH]c1C` [Example 83, Ethyl 2-methyl-5-(2-(2-(methylamino)-4-pyridinyl)-1,3-thiazol-4-yl)-6-oxo-1,6-dihydro-3-pyridinecarboxylate], the melting point was 270 °C (dec.).
As for `Cc1[nH]c(=O)c(-c2csc(-c3ccnc(NCc4ccccn4)c3)n2)cc1C(=O)NCc1ccccn1` [Example 88, 2-Methyl-6-oxo-N-(2-pyridinylmethyl)-5-(2-(2-((2-pyridinylmethyl)amino)-4-pyridinyl)-1,3-thiazol-4-yl)-1,6-dihydro-3-pyridinecarboxamide], the melting point was more than 260 °C.
On the same count and under the same terms, then `CCOC(=O)c1cc(-c2csc(-c3ccnc(NCc4ccccn4)c3)n2)c(=O)[nH]c1C` [Example 90, Ethyl 2-methyl-6-oxo-5-(2-(2-((2-pyridinylmethyl)amino)-4-pyridinyl)-1,3-thiazol-4-yl)-1,6-dihydro-3-pyridinecarboxylate], with 270 °C (dec.); and `CCOC(=O)c1cc(-c2csc(-c3ccnc(NCCOc4ccccc4)c3)n2)c(=O)[nH]c1C` [Example 91, Ethyl 2-methyl-6-oxo-5-(2-(2-((2-(phenyloxy)ethyl)amino)-4-pyridinyl)-1,3-thiazol-4-yl)-1,6-dihydro-3-pyridinecarboxylate], with 270 °C (dec.).

The next data set can be described thus: Cell proliferation assay (BrdU incorporation). It is filed as cell-based. The conditions noted are these: Homo sapiens, 48 h incubation, cell line not given, read-out: inhibited proliferation IC50. The protocol:
Cell proliferation was measured using a colorimetric immunoassay (B/M Roche #164 7229), based on the measurement of pyrimidine analog BrdU incorporation during DNA synthesis in proliferating cells. Cells, e.g., human PC-3 prostate carconima cells, huFSF normal human foreskin fibroblast cells, HCT 116 human colon carcinoma cells or HT 29 human colon carcinoma cells, were cultured in a 96-well plate for 24 h, until a cell count of 3×10^3 to 6×10^3 cells per well in duplicate wells were achieved, in a well volume of 200 μL. The media was changed and 1 μL of 200× control inhibitors or compounds was added to each well. Cells are incubated for 48 h at 37° C. The cells were labeled with BrdU for 4 h at 37° C. The labeling medium was removed and in one step, the cells were fixed and the DNA was denatured (30 min at RT). Anti-BrdU-POD antibody was added to bind to the BrdU incorporated in newly synthesized cellular DNA (60-90 min at RT). The cells were washed 3× with washing buffer, substrate (100 μL) was added and the cells were incubated for 10 min at RT. The substrate reaction was stopped by adding 25 μL of 1M H2SO4. The amount of BrdU incorporated was quantified by measuring the absorbance at 450 nm using ELISA reader. IC50's were calculated using GraFit (Sigma).
Regarding `CCOC(=O)c1cc(-c2csc(-c3ccncc3)n2)c(=O)[nH]c1CC` [Example 1, Ethyl 2-ethyl-6-oxo-5-(2-(4-pyridinyl)-1,3-thiazol-4-yl)-1,6-dihydro-3-pyridinecarboxylate], the IC50 is less than 1000 nM.
On the same count and under the same terms, as for `CCOC(=O)c1cc(-c2csc(CS(=O)(=O)c3cccs3)n2)c(=O)[nH]c1CC` [Example 2, Ethyl 2-ethyl-6-oxo-5-{2-[(thienylsulfonyl)methyl](1,3-thiazol-4-yl)}-1,6-dihydro-3-pyridinecarboxylate], the figure is less than 1000 nM; as for `CCOC(=O)c1cc(-c2csc(CS(=O)(=O)c3ccccc3)n2)c(=O)[nH]c1CC` [Example 3, Ethyl 2-ethyl-6-oxo-5-{2-[(phenylsulfonyl)methyl](1,3-thiazol-4-yl)}-1,6-dihydro-3-pyridinecarboxylate], less than 1000 nM.
Still for that read-out and setting: then `CCOC(=O)c1cc(-c2csc(CS(=O)(=O)c3ccccc3)n2)c(=O)[nH]c1C(C)C` [Example 12, Ethyl 2-isopropyl-6-oxo-5-{2-[(phenylsulfonyl)methyl](1,3-thiazol-4-yl)}-1,6-dihydro-3-pyridinecarboxylate], with less than 1000 nM.
For `CCOC(=O)c1cc(-c2csc(CS(=O)(=O)c3cccs3)n2)c(=O)[nH]c1C` [Example 24, Ethyl 2-methyl-6-oxo-5-{2-[(2-thienylsulfonyl)methyl](1,3-thiazol-4-yl)}-1,6-dihydro-3-pyridinecarboxylate], the IC50 is less than 1000 nM.
Same read-out and setting: as for `CCOC(=O)c1cc(-c2csc(-c3ccnc(NCc4cccnc4)c3)n2)c(=O)[nH]c1C` [Example 47, Ethyl 2-methyl-6-oxo-5-(2-(2-((3-pyridinylmethyl)amino)-4-pyridinyl)-1,3-thiazol-4-yl)-1,6-dihydro-3-pyridin carboxylate], the figure is less than 1000 nM; as for `CCOC(=O)c1cc(-c2csc(-c3ccnc(NCCNC(C)C)c3)n2)c(=O)[nH]c1C` [Example 50, Ethyl 2-methyl-5-(2-(2-((2-((1-methylethyl)amino)ethyl)amino)-4-pyridinyl)-1,3-thiazol-4-yl)-6-oxo-1,6-dihydro-3-pyridinecarboxylate], less than 1000 nM.
